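Exposure lasted 48 hours, with cells grown in 96-well plates and compounds tested at five concentrations. At the GI50, growth is halved. TGI marks complete inhibition of growth.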
Experiments:
Assay in all cases: growth of human tumour cells (NCI), 48 h
SNB-75 CNS = test system: SNB-75 CNS
MDA-MB-435 = test system: MDA-MB-435
EKVX NSCLC = test system: EKVX NSCLC
A549 NSCLC = test system: A549 NSCLC
SK-MEL-5 melanoma = test system: SK-MEL-5 melanoma
SF-539 CNS = test system: SF-539 CNS
SF-268 CNS = test system: SF-268 CNS
NCI-H226 lung = test system: NCI-H226 lung
HOP-62 NSCLC = test system: HOP-62 NSCLC
SK-MEL-28 melanoma = test system: SK-MEL-28 melanoma
PC-3 prostate = test system: PC-3 prostate
UO-31 renal = test system: UO-31 renal
RPMI-8226 leukemia = test system: RPMI-8226 leukemia
HT29 colon = test system: HT29 colon
OVCAR-8 ovarian = test system: OVCAR-8 ovarian
CAKI-1 renal = test system: CAKI-1 renal
NCI-H23 lung = test system: NCI-H23 lung
IGROV1 ovarian = test system: IGROV1 ovarian
OVCAR-5 ovarian = test system: OVCAR-5 ovarian
TK-10 renal = test system: TK-10 renal
SW-620 colon = test system: SW-620 colon
OVCAR-3 ovarian = test system: OVCAR-3 ovarian
ACHN renal = test system: ACHN renal
SN12C renal = test system: SN12C renal
LOX IMVI melanoma = test system: LOX IMVI melanoma
HOP-92 NSCLC = test system: HOP-92 NSCLC
NCI-H522 lung = test system: NCI-H522 lung
DU-145 prostate = test system: DU-145 prostate
BT-549 breast = test system: BT-549 breast
A498 renal = test system: A498 renal
MCF7 breast = test system: MCF7 breast
HCT-116 colon = test system: HCT-116 colon
NCI-H460 lung = test system: NCI-H460 lung
786-0 renal = test system: 786-0 renal
UACC-257 melanoma = test system: UACC-257 melanoma
MDA-MB-231 breast = test system: MDA-MB-231 breast
UACC-62 melanoma = test system: UACC-62 melanoma
OVCAR-4 ovarian = test system: OVCAR-4 ovarian
U251 CNS = test system: U251 CNS
HCC-2998 colon = test system: HCC-2998 colon
RXF 393 renal = test system: RXF 393 renal
HS 578T breast = test system: HS 578T breast
NCI/ADR-RES ovarian = test system: NCI/ADR-RES ovarian
SF-295 CNS = test system: SF-295 CNS
SR leukemia = test system: SR leukemia
M14 melanoma = test system: M14 melanoma
CCRF-CEM leukemia = test system: CCRF-CEM leukemia
KM12 colon = test system: KM12 colon
MALME-3M melanoma = test system: MALME-3M melanoma
COLO 205 colon = test system: COLO 205 colon
MOLT-4 leukemia = test system: MOLT-4 leukemia
HL-60(TB) leukemia = test system: HL-60(TB) leukemia
HCT-15 colon = test system: HCT-15 colon
SK-MEL-2 melanoma = test system: SK-MEL-2 melanoma
K-562 leukemia = test system: K-562 leukemia
T-47D breast = test system: T-47D breast
SNB-19 CNS = test system: SNB-19 CNS
SK-OV-3 ovarian = test system: SK-OV-3 ovarian

With `COc1cc(/C=C\c2cc(/C=C\c3ccc(O)c(OC)c3)n(C(=O)COc3ccccc3)n2)ccc1O` the GI50 (SNB-75 CNS) was 822 nM, the TGI (SNB-75 CNS) was 5300 nM and the GI50 (MDA-MB-435) was 210 nM. The TGI (MDA-MB-435) was 492 nM, the GI50 (EKVX NSCLC) was 2530 nM and the TGI (EKVX NSCLC) was 10300 nM. For the same compound, the GI50 (A549 NSCLC) was 2420 nM, the TGI (A549 NSCLC) was 11100 nM and the GI50 (SK-MEL-5 melanoma) was 834 nM. It also gave a TGI (SK-MEL-5 melanoma) of 3520 nM, a GI50 (SF-539 CNS) of 354 nM and a TGI (SF-539 CNS) of 2470 nM. The GI50 (SF-268 CNS) was 651 nM, the TGI (SF-268 CNS) was 5650 nM and the GI50 (NCI-H226 lung) was 3150 nM. For the same compound, the TGI (NCI-H226 lung) was 9940 nM, the GI50 (HOP-62 NSCLC) was 1080 nM and the TGI (HOP-62 NSCLC) was 4950 nM. The GI50 (SK-MEL-28 melanoma) was 1120 nM, the TGI (SK-MEL-28 melanoma) was 10400 nM and the GI50 (PC-3 prostate) was 1600 nM. It also gave a TGI (PC-3 prostate) greater than 100000 nM, a GI50 (UO-31 renal) of 302 nM and a TGI (UO-31 renal) of 4120 nM. The GI50 (RPMI-8226 leukemia) was 377 nM, the TGI (RPMI-8226 leukemia) was 2360 nM and the GI50 (HT29 colon) was 2670 nM. For the same compound, the TGI (HT29 colon) was 6350 nM, the GI50 (OVCAR-8 ovarian) was 2520 nM and the TGI (OVCAR-8 ovarian) was 8570 nM. It also gave a GI50 (CAKI-1 renal) of 657 nM, a TGI (CAKI-1 renal) of 12400 nM and a GI50 (NCI-H23 lung) of 1330 nM. It also gave a TGI (NCI-H23 lung) of 6640 nM, a GI50 (IGROV1 ovarian) of 919 nM and a TGI (IGROV1 ovarian) of 8000 nM. It also gave a GI50 (OVCAR-5 ovarian) of 2750 nM, a TGI (OVCAR-5 ovarian) of 6810 nM and a GI50 (TK-10 renal) of 2910 nM. The TGI (TK-10 renal) was 10900 nM, the GI50 (SW-620 colon) was 608 nM and the TGI (SW-620 colon) was 9020 nM. It also gave a GI50 (OVCAR-3 ovarian) of 552 nM, a TGI (OVCAR-3 ovarian) of 2770 nM and a GI50 (ACHN renal) of 490 nM. It also gave a TGI (ACHN renal) of 11100 nM, a GI50 (SN12C renal) of 799 nM and a TGI (SN12C renal) of 7660 nM. It also gave a GI50 (LOX IMVI melanoma) of 550 nM, a TGI (LOX IMVI melanoma) of 3290 nM and a GI50 (HOP-92 NSCLC) of 3130 nM. The TGI (HOP-92 NSCLC) was 20400 nM, the GI50 (NCI-H522 lung) was 304 nM and the TGI (NCI-H522 lung) was 970 nM. It also gave a GI50 (DU-145 prostate) of 1370 nM, a TGI (DU-145 prostate) of 8060 nM and a GI50 (BT-549 breast) of 571 nM. For the same compound, the TGI (BT-549 breast) was 4030 nM, the GI50 (A498 renal) was 2680 nM and the TGI (A498 renal) was 6490 nM. It also gave a GI50 (MCF7 breast) of 343 nM, a TGI (MCF7 breast) of 2830 nM and a GI50 (HCT-116 colon) of 386 nM. The TGI (HCT-116 colon) was 10000 nM, the GI50 (NCI-H460 lung) was 1250 nM and the TGI (NCI-H460 lung) was 10200 nM. The GI50 (786-0 renal) was 1060 nM, the TGI (786-0 renal) was 3580 nM and the GI50 (UACC-257 melanoma) was 2210 nM. For the same compound, the TGI (UACC-257 melanoma) was 7340 nM, the GI50 (MDA-MB-231 breast) was 2380 nM and the TGI (MDA-MB-231 breast) was 15300 nM. For the same compound, the GI50 (UACC-62 melanoma) was 326 nM, the TGI (UACC-62 melanoma) was 1270 nM and the GI50 (OVCAR-4 ovarian) was 845 nM. It also gave a TGI (OVCAR-4 ovarian) of 12300 nM, a GI50 (U251 CNS) of 564 nM and a TGI (U251 CNS) of 5960 nM. For the same compound, the GI50 (HCC-2998 colon) was 2270 nM, the TGI (HCC-2998 colon) was 10200 nM and the GI50 (RXF 393 renal) was 1000 nM. For the same compound, the TGI (RXF 393 renal) was 2520 nM, the GI50 (HS 578T breast) was 1120 nM and the TGI (HS 578T breast) was 6840 nM. The GI50 (NCI/ADR-RES ovarian) was 559 nM, the TGI (NCI/ADR-RES ovarian) was 11700 nM and the GI50 (SF-295 CNS) was 2780 nM. For the same compound, the TGI (SF-295 CNS) was 7700 nM, the GI50 (SR leukemia) was 318 nM and the TGI (SR leukemia) was 2460 nM. The GI50 (M14 melanoma) was 343 nM, the TGI (M14 melanoma) was 2680 nM and the GI50 (CCRF-CEM leukemia) was 281 nM. For the same compound, the TGI (CCRF-CEM leukemia) was 1340 nM, the GI50 (KM12 colon) was 500 nM and the TGI (KM12 colon) was 6810 nM. For the same compound, the GI50 (MALME-3M melanoma) was 585 nM, the TGI (MALME-3M melanoma) was 3710 nM and the GI50 (COLO 205 colon) was 1960 nM. For the same compound, the TGI (COLO 205 colon) was 3950 nM, the GI50 (MOLT-4 leukemia) was 368 nM and the TGI (MOLT-4 leukemia) was 3260 nM. For the same compound, the GI50 (HL-60(TB) leukemia) was 282 nM, the TGI (HL-60(TB) leukemia) was 901 nM and the GI50 (HCT-15 colon) was 416 nM. It also gave a TGI (HCT-15 colon) of 7960 nM, a GI50 (SK-MEL-2 melanoma) of 661 nM and a TGI (SK-MEL-2 melanoma) of 3560 nM. The GI50 (K-562 leukemia) was 366 nM, the TGI (K-562 leukemia) was 10800 nM and the GI50 (T-47D breast) was 1620 nM. The TGI (T-47D breast) was 6950 nM, the GI50 (SNB-19 CNS) was 1360 nM and the TGI (SNB-19 CNS) was 9590 nM. It also gave a GI50 (SK-OV-3 ovarian) of 1530 nM and a TGI (SK-OV-3 ovarian) of 3450 nM.

— PubChem BioAssay (NCI)
